Patent US20060172019A1 (priority 2003, published 2006)
“Also recorded” adds a separate entry of the source. Read-outs that look alike come from different tables or passages of the source.

Assays:
CB1 receptor [1] = molecular target: T1, CB1 receptor (Homo sapiens, UniProt P21554); conditions: cited from earlier work
[2] = tested on: J774 murine macrophage cells; assay: Alamar Blue J774 murine macrophage viability assay; assay type: cell-based; conditions: for IC50: Mus musculus; for effect on J774 survival: data not shown
Experimental: J774 cells were plated at 10^4 cells per well in 150 μL αMEM (α Modified Eagle Medium) in 96-well plates and grown overnight. The next day, compounds were added to the cultures, and culture was continued for another 72 hours.
Alamar Blue is an oxidation-reduction sensitive indicator. The dye itself is in the oxidised state, which is blue and non-fluorescent. The dye can accept electrons from reducing species, such as NADPH and FADH, to form a reduced dye species, which is red and fluorescent. Thus the transformation from oxidised form to reduced form can be measured by fluorimetric or colourimetric means. For fluorescence measurements, 530-560 nm excitation and 590 nm emission wavelengths are typically used. For colourimetric measurements, absorbance is measured at 570 nm (reduced form) and 600 nm (oxidised form) and a simple calculation performed to determine the relative quantities of the two species.
A high ratio of the reducing species, NADPH and FADH, to the corresponding oxidised species, NADP and FAD, is an indicator that cells are proliferating and viable. A low ratio indicates cells that are quiescent or non-viable.
Briefly, Alamar Blue (Biosource International) was added undiluted to the each well (1:10 v/v, 15 μL). The plate was incubated at 37° C. for 3-4 hours and the fluorescence was measured at 570 nm, with a 25 nm bandwidth. A high reading indicated cells with normal viability, and a low reading indicates cells that have been damaged and are no longer proliferating normally.
In general, compounds studied were made up as 100 mM solutions in DMSO. These stock solutions were then diluted 100 or 1000× in culture medium (αMEM).

[3] = tested on: ovariectomy induced bone loss; assay: Ovariectomy induced bone loss, peripheral quantitative computed tomography; assay type: in vivo, C57/BL6 mice; conditions: for ovariectomy-induced bone loss in a mouse model: in vivo
rabbit osteoclasts = assay: Rabbit osteoclast culture; assay type: cell-based
Experimental: Osteoclast survival and activity was studied in cultures of rabbit osteoclasts. Osteoclasts were isolated from the long bones of 2-3 day-old rabbits as described previously (see, e.g., Coxon et al., 2000), plated on dentine slices and cultured in αMEM supplemented with 10% FCS and penicillin and streptomycin at 37° C. in 5% CO2 for 48 hours in the presence or absence of test compounds.

CB1 receptor [4] = molecular target: T1, CB1 receptor; conditions: read-out: Ki (nM) CB1, cited from earlier work
CB2 receptor [5] = molecular target: T2, CB2 receptor (Homo sapiens, UniProt P34972); conditions: cited from earlier work; for Classification CB2: Table 1; for CB receptor function (CB2): Table 2
CB2 receptor [6] = molecular target: T2, CB2 receptor
mouse osteoblasts = assay: Mouse osteoblast culture (Alamar Blue); assay type: cell-based; conditions: 72 hours, n=3
Experimental: Osteoblasts were isolated as described above and plated at 10^4 cells/well in 96-well plates in 100 μL of αMEM supplemented with 10% FCS and antibiotics. Test substances were added after 24 hours and left for 72 hours. Cell viability was assessed using the Alamar Blue assay.

[7] = tested on: ovariectomy induced bone loss; assay: Ovariectomy induced bone loss, dual energy x-ray absorptiometry; assay type: in vivo, C57/BL6 mice; conditions: 6 mg/kg, OVX operation, DEXA
Experimental: Animals. Female 9 week-old C57/BL6 mice. Animals were housed in a designated animal facility and routinely maintained on a 12 h:12 h light:dark cycle and given ad libitum access to food and water.
Ovariectomy induced bone loss. Bilateral ovariectomy (Ovx) was performed under general anaesthesia. Sham ovariectomy (Sham) was similarly performed but with externalisation and replacement of the ovaries. Animals were given a daily injection of (a) candidate compound (e.g., 6 mg/kg) in vehicle (corn oil), or (b) vehicle (corn oil). After 21 days, the animals were killed, and the tibial bones were dissected and used for bone mineral density measurements and histomorphometric analysis (see below).
Whole body, spine and femoral bone mineral density (BMD) and bone mineral content (BMC) were determined using a Piximus small animal DEXA scanner at the start and the end of the experiment. Daily quality assurance measurements were performed using a phantom according to the manufacturer's instructions.

osteoclasts = assay: cells; assay type: cell-based, mice; conditions: Mus musculus, Osteoclast; TRAcP MNC and resorbed area, n=3; read-out: IC50, inhibition of osteoclast function and bone resorption
Experimental: Osteoblasts were isolated from the calvarial bones of 2-day-old mice by sequential collagenase digestion (type I collagenase, Sigma) and cultured in αMEM supplemented with 10% FCS and penicillin and streptomycin at 37° C. in 5% CO2. […] The resulting bone marrow cells were washed with PBS and resuspended in culture medium.
Osteoblasts and bone marrow cells were plated at 10^4 cells/well and 2×10^5 cells/well, respectively, in 96-well plates in 150 μL of αMEM supplemented with 10% FCS, antibiotics and 10 nM 1,25-dihydroxyvitamin D3. Test substances were added on day 7 and the cultures were terminated on day 10. At the end of the culture period, osteoclasts were identified by TRAcP staining and resorption pits were quantified by reflected light microscopy, as described above.

[8] = J774, Alamar Blue, 72 hours, n=3, read-out: IC50, J774 survival
[9] = J774 viability assay, Table 2, read-out: IC50 in J774 cells
[10] = Table 1; read-out: Ki (nM) CB2; cited from earlier work

T1 sequence (P21554 whole entry): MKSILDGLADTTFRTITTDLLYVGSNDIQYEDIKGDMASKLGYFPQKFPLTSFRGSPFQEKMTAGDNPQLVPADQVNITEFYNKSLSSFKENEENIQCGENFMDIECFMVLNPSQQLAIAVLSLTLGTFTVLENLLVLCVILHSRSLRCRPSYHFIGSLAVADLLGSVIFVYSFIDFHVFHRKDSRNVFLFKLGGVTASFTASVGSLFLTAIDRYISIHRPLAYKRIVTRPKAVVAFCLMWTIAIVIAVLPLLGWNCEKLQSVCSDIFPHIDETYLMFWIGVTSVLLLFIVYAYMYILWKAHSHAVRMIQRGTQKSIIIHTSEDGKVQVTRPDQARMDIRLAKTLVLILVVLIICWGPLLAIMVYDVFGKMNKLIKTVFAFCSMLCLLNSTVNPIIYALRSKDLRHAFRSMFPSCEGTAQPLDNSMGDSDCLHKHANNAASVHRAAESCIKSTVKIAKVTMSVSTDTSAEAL
T2 sequence (P34972 whole entry): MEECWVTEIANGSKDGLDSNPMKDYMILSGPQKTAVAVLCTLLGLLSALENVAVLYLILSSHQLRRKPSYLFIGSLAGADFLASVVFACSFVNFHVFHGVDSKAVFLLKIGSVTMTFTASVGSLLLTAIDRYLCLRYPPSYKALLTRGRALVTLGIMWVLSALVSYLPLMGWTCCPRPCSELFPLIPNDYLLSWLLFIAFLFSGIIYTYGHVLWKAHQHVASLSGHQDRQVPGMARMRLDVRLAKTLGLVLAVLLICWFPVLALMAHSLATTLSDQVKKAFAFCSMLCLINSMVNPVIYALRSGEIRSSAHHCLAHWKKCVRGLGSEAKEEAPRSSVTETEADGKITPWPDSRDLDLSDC

Cc1c(C(=O)NN2CCCCC2)nn(-c2ccc(Cl)cc2Cl)c1-c1ccc(I)cc1 [AM251]
CB receptor function (CB1) (CB1 receptor [1]): CB1 inverse agonist
Classification CB1 (CB1 receptor [1]): Inverse agonist
J774 viability (summary in words) [2]: inhibit
ovariectomy-induced bone loss in a mouse model [3]: completely reverse
bone resorption (resorbed area) (rabbit osteoclasts; 10 μM (p<0.03) and 20 μM (p<0.01), 48 hours): reduced

Cc1c(C(=O)NN2CCOCC2)nn(-c2ccc(Cl)cc2Cl)c1-c1ccc(I)cc1 [AM281]
Ki (CB1 receptor [4]; Table 1): 12 nM
Classification CB1 (CB1 receptor [1]; Table 1): Inverse agonist

COc1ccc(C(=O)c2c(C)n(CCN3CCOCC3)c3cc(I)ccc23)cc1 [AM630]
J774 viability (summary in words) [2]: inhibit
IC50 [2, 8]: ~20 µM
IC50 [2, 9]: 20 µM
Classification CB2 (CB2 receptor [5]): Inverse agonist
CB receptor function (CB2) (CB2 receptor [5]): CB2 inverse agonist

CCCCC/C=C\C/C=C\C/C=C\C/C=C\CCCC(=O)NCCO [Anandamide, arachidonyl ethanolamide]
J774 viability (summary in words) [2]: inhibits
IC50 [2, 8]: ~40 µM
IC50 [2, 9]: 40 µM
effect on J774 survival ([2]; low concentrations): no effect
Classification CB2 (CB2 receptor [5]): Partial agonist
CB receptor function (CB2) (CB2 receptor [5]): CB2 partial agonist/; also recorded: antagonist

CCCCCCC(C)(C)c1ccc([C@@H]2C[C@H](O)CC[C@H]2CCCO)c(O)c1 [CP55940]
CB receptor function (CB1) (CB1 receptor [1]): CB1 agonist
J774 viability (summary in words) [2]: do not affect
IC50 in J774 cells ([2]; J774 viability assay, Table 2): inactive
effect on J774 survival ([2]; concentrations of up to 100 μM): did not affect
CB receptor function (CB2) (CB2 receptor [5]): CB2 agonist

CCCCCc1cc(O)c2c(c1)OC(C)(C)c1ccc(C)cc1-2 [Cannabinol, cannabinol]
Ki (CB1 receptor [4]): 115 nM
Classification CB1 (CB1 receptor [1]): Neutral antagonist
Ki (CB2 receptor [6]; read-out: Ki (nM) CB2; Table 1; cited from earlier work): 580 nM
Classification CB2 (CB2 receptor [5]): Inverse agonist

CCCCCOc1c(OC)ccc2cc(C(=O)NCc3ccc4c(c3)OCO4)c(=O)[nH]c12 [JTE-907, 7-Methoxy-2-oxo-8-pentyloxy-1,2-dihydro-quinoline-3-carboxylic acid (benzo[1,3]dioxol-5-yl-methyl)-amide]
Ki (CB1 receptor [4]): 684 nM
osteoblast survival (mouse osteoblasts): little activity
Classification CB1 (CB1 receptor [1]): Inactive
IC50 [2, 8]: ~25 µM
IC50 [2, 9]: 25 µM
Classification CB2 (CB2 receptor [5]): Inverse agonist
CB receptor function (CB2) (CB2 receptor [5]): CB2 inverse agonist

CCCC(C)(C)c1ccc2c(c1)OC(C)(C)[C@@H]1CC=C(C)C[C@@H]21 [JWH 133]
J774 viability (summary in words) [2]: does not affect
IC50 in J774 cells ([2]; J774 viability assay, Table 2): inactive
effect on J774 survival ([2]; concentrations of up to 20 μM): did not affect
CB receptor function (CB2) (CB2 receptor [5]): CB2-selective agonist

COc1ccc(-c2oc3cc(OC)ccc3c2C(=O)c2ccc(C#N)cc2)cc1 [LY320135]
Classification CB1 (CB1 receptor [1]; Table 1): Inverse agonist
Classification CB2 (CB2 receptor [5]): Inactive

CC1=CCC2[C@@H](C1)c1c(O)cc(CC#CCCCN=[N+]=[N-])cc1OC2(C)C (stereo partly drawn) [O1184]
Ki (CB1 receptor [4]; Table 1): 5.2 nM
Classification CB1 (CB1 receptor [1]; Table 1): Partial agonist
Ki (CB2 receptor [6]; [10]): 7.4 nM
Classification CB2 (CB2 receptor [5]): Inverse agonist

CC1=CCC2[C@@H](C1)c1c(O)cc(C/C=C\CCCN=[N+]=[N-])cc1OC2(C)C (stereo partly drawn) [O1238]
Ki (CB1 receptor [4]; Table 1): 3.5 nM
Classification CB1 (CB1 receptor [1]; Table 1): Partial agonist
Ki (CB2 receptor [6]; [10]): 7.8 nM
Classification CB2 (CB2 receptor [5]): Partial agonist

Cc1c(C(=O)NN2CCCCC2)nn(-c2ccc(Cl)cc2Cl)c1-c1ccc(Cl)cc1 [SR141716A]
Classification CB2 (CB2 receptor [5]): Inverse agonist

Cc1ccc(Cn2nc(C(=O)NC3C4(C)CCC(C4)C3(C)C)cc2-c2ccc(Cl)c(C)c2)cc1 [SR144528, 5-(4-Chloro-3-methyl-phenyl)-1-(4-methyl-benzyl)-1H-pyrazole-3-carboxylic acid ((1S)-1,3,3-trimethylbicyclo[2.2.1]hept-2endo,exo-yl)-amide]
osteoblast survival (mouse osteoblasts): little activity
Classification CB1 (CB1 receptor [1]): Inverse agonist
IC50 [2, 8]: ~9 µM
IC50 [2, 9]: 9 µM
ovariectomy-induced bone loss, trabecular density ([3]; 6 mg/kg daily injection, 21 days, pQCT, tibia): very effective at reversing the bone loss
ovariectomy-induced bone loss in a mouse model [3]: completely reverse
ovariectomy-induced bone loss at the femoral site (femoral bone mineral content and density) [7]: very effective at reversing the bone loss
IC50 (osteoclasts): ~5 µM
survival and resorptive activity of authentic rabbit osteoclasts (rabbit osteoclasts): inhibit

Cc1c(C(=O)c2cccc3ccccc23)c2cccc3c2n1[C@H](CN1CCOCC1)CO3 [WIN55212]
J774 viability (summary in words) [2]: do not affect
IC50 in J774 cells ([2]; J774 viability assay, Table 2): inactive
effect on J774 survival ([2]; concentrations of up to 100 μM): did not affect
CB receptor function (CB2) (CB2 receptor [5]): CB2 agonist

Cc1ccc(Cn2nc(C(=O)NCc3ccc4c(c3)OCO4)cc2-c2ccc(Cl)c(C)c2)cc1 [benzodioxo, 5-(4-Chloro-3-methyl-phenyl)-1-(4-methyl-benzyl)-1H-pyrazole-3-carboxylic acid (benzo[1,3]dioxol-5-yl-methyl) amide]
IC50 [2, 8]: ~15 µM

COC(=O)c1cc(-c2ccc(Cl)c(C)c2)n(Cc2ccc(C)cc2)n1 [methyl, 5-(4-Chloro-3-methyl-phenyl)-1-(4-methyl-benzyl)-1H-pyrazole-3-carboxylic acid methyl ester]
IC50 [2, 8]: ~9 µM

Cc1ccc(Cn2nc(C(=O)NN3CCCCC3)cc2-c2ccc(Cl)c(C)c2)cc1 [piperidinyl, 5-(4-Chloro-3-methyl-phenyl)-1-(4-methyl-benzyl)-1H-pyrazole-3-carboxylic acid piperidin-1-yl amide]
IC50 [2, 8]: ~15 µM

CCCCCc1cc(O)c2c(c1)OC(C)(C)[C@@H]1CCC(C)=C[C@@H]21 [Δ^9THC, Δ^9-tetrahydrocannabinol]
Classification CB2 (CB2 receptor [5]): Neutral antagonist
